Our source for the MIC values is US5824687A, “Pyridinium salts and their use for the control of helicobacter bacteria” (BYK Gulden Lomberg Chemische Fabrik GmbH, priority 1993, dated 1998).

For the test, the system named is Helicobacter pylori. The test can be described thus: Activity against Helicobacter pylori (MIC, Columbia agar (Oxoid), growth period of 4 days). The class given is cell-based. As to conditions: 96 h, methodology of Tomoyuki Iwahi et al. From the text:
The compounds according to the invention were investigated with respect to their activity against Helicobacter pylori following the methodology described by Tomoyuki Iwahi et al. (Antimicrobial Agents and Chemotherapy,1991, 490-496) using Columbia agar (Oxoid) and with a growth period of 4 days.

Each structure is given as a SMILES string.

What is called MIC is the least concentration at which growth counts as inhibited. A high value points to a less susceptible organism.

With `Cc1c(C)[n+]2cccc(OCc3ccccc3)c2n1Cc1ccc(F)cc1` [Compound 3, 8-Benzyloxy-1-(4-fluorobenzyl)-2,3-dimethylimidazo-[1,2-a]pyridinium bromide], the minimum inhibitory concentration (MIC) was at most 10 µg/mL.
As for `COC(=O)c1ccc(Cn2c(C)c(C)[n+]3cccc(OCc4ccccc4)c23)cc1` [Compound 4, 8-Benzyloxy-1-(4-methoxycarbonylbenzyl)-2,3-dimethylimidazo[1,2-a]pyridinium bromide], the figure is at most 10 µg/mL; as for `Cc1c(C)[n+]2cccc(OCc3ccccc3)c2n1CCc1ccccc1` [Compound 5, 8-Benzyloxy-2,3-dimethyl-1-phenethylimidazo[1,2-a]pyridinium bromide], at most 10 µg/mL.
As for `Cc1c(CC#N)[n+]2cccc(OCc3ccccc3)c2n1CCc1ccccc1` [Compound 6, 8-Benzyloxy-3-cyanomethyl-2-methyl-1-phenethylimidazo[1,2-a]pyridinium bromide], the figure is at most 10 µg/mL; as for `C#CCc1c(C)n(CCc2ccccc2)c2c(OCc3ccccc3)ccc[n+]12` [Compound 7, 8-Benzyloxy-2-methyl-1-phenethyl-3-(2-propynyl)imidazo[1,2-a]pyridiniumbromide], at most 10 µg/mL; as for `Cc1c(C)[n+]2cccc(OCc3ccccc3)c2n1Cc1cc(F)cc(F)c1` [Compound 10, 8-Benzyloxy-1-(3,5-difluorobenzyl)-2,3-dimethylimidazo[1,2-a]pyridiniumbromide], at most 10 µg/mL.
Compound `Cc1c(C)[n+]2cccc(OCc3ccccc3)c2n1Cc1ccc2ccccc2c1` [Compound 12, 8-Benzyloxy-2,3-dimethyl-1-(2-naphthylmethyl)imidazo[1,2-a]pyridinium bromide] showed a minimal inhibitory concentration (MIC) of at most 10 µg/mL.
As for `Cc1c(C)[n+]2cccc(OCc3ccccc3)c2n1Cc1cccc(C#N)c1` [Compound 13, 8-Benzyloxy-1-(3-cyanobenzyl)-2,3-dimethylimidazo[1,2-a]pyridinium bromide], the figure is at most 10 µg/mL.
As for `Cc1c(C)[n+]2cccc(OCc3ccccc3)c2n1Cc1ccc(-c2ccccc2)cc1` [Compound 18, 8-Benzyloxy-1-(4-biphenylmethyl)-2,3-dimethylimidazo[1,2-a]pyridinium bromide], the minimal inhibitory concentration (MIC) is at most 10 µg/mL.
